Experimental data taken from patent publication US20090054490A1, “METHODS FOR THE TREATMENT OF GERD WITH MGLUR5 ANTAGONISTS” (priority 2007, published 2009).

The compounds below were run against T1, human mGlu5a receptor (Homo sapiens, UniProt P41594) (assay: [3H]MPEP competition binding on membranes of EBNA cells transfected with human mGlu5a receptor). Conditions: [3H]MPEP 2 nM, 1 h at 4° C., read-out: Ki (mGluR5).
T1 construct: expressed in transfected cells; host or cells: EBNA cells (transient transfection); cell membrane homogenates
T1 sequence (P41594 21-1180 isoform P41594-2 limits assumed): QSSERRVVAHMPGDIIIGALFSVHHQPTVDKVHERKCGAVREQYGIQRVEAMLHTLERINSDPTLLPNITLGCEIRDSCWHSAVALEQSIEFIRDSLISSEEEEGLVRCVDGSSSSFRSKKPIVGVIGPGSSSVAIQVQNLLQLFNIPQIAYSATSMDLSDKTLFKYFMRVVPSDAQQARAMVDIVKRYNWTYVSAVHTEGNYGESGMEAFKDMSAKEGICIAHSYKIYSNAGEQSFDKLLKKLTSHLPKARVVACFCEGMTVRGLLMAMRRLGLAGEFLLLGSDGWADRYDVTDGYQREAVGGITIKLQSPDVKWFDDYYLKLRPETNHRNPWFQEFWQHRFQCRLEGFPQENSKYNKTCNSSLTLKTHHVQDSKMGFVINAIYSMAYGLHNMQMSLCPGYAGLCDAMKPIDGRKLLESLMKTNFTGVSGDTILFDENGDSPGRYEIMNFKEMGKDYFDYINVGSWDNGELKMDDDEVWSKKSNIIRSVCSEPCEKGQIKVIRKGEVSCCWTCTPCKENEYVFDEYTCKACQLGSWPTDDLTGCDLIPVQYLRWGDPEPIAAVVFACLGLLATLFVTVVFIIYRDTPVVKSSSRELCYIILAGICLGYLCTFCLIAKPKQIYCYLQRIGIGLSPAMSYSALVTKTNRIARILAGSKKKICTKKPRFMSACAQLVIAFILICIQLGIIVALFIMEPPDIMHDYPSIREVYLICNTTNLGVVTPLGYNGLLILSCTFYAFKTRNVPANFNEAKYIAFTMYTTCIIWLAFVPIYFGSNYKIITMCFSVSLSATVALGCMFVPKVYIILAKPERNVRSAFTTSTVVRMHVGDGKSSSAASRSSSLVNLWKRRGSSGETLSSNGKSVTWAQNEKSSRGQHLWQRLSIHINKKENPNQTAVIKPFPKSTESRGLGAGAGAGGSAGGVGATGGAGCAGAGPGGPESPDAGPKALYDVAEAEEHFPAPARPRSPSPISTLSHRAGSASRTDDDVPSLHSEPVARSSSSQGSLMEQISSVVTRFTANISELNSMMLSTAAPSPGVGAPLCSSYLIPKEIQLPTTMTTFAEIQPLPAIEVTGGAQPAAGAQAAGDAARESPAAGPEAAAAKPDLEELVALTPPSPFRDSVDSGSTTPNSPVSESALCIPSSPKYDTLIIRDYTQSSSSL
Method: For binding experiments, cDNA encoding human mGlu5a receptor was transiently transfected into EBNA cells using a procedure described by Schlaeger and Christensen [Cytotechnology 15:1-13 (1998)]. Cell membrane homogenates were stored at −80° C. until the day of assay where upon they were thawed and resuspended and polytronised in 15 mM Tris-HCl, 120 mM NaCl, 100 mM KCl, 25 mM CaCl2, 25 mM MgCl2 binding buffer at pH 7.4 to a final assay concentration of 20 […].
Saturation isotherms were determined by addition of twelve [^3H]MPEP concentrations (0.04-100 nM) to these membranes (in a total volume of 200 μl) for 1 h at 4° C. […] Incubations were performed for 1 h at 4° C.
At the end of the incubation, membranes were filtered onto unifilter (96-well white microplate with bonded GF/C filter preincubated 1 h in 0.1% PEI in wash buffer, Packard BioScience, Meriden, Conn.) with a Filtermate 96 harvester (Packard BioScience) and washed 3 times with cold 50 mM Tris-HCl, pH 7.4 buffer. Nonspecific binding was measured in the presence of […]. The radioactivity on the filter was counted (3 min) on a Packard Top-count microplate scintillation counter with quenching correction after addition of 45 μl of microscint 40 (Canberra Packard S.A., Zutrich, Switzerland) and shaking for 20 min.
The inhibition (antagonists) curves were fitted with a four parameter logistic equation giving IC50, and Hill coefficient using an iterative non linear curve fitting software (Xcel fit).
The Ki value is defined by the following formula: […]
L is the concentration of radioligand used in the binding experiment and the Kd value of the radioligand is empirically determined for each batch of membranes prepared.

Structure (SMILES) | Ki [nM]
Cc1cc(F)ccc1-n1c(C)nc(C#Cc2ccnc(Cl)c2)c1C [compound 5, 2-Chloro-4-[1-(4-fluoro-2-methyl-phenyl)-2,5-dimethyl-1H-imidazol-4-ylethynyl]-pyridine] | 50
Cc1cc(-n2c(C)nc(C#Cc3ccnc(Cl)c3)c2C)ccc1F [compound 6, 2-Chloro-4-[1-(4-fluoro-3-methyl-phenyl)-2,5-dimethyl-1H-imidazol-4-ylethynyl]-pyridine] | 35
COc1ccc(-n2c(C)nc(C#Cc3ccnc(Cl)c3)c2C)cc1 [compound 10, 2-Chloro-4-[1-(4-methoxy-phenyl)-2,5-dimethyl-1H-imidazol-4-ylethynyl]-pyridine] | 30
Cc1nc(C#Cc2ccnc(Cl)c2)c(C)n1-c1ccc(C(F)(F)F)cc1 [compound 13, 2-Chloro-4-[2,5-dimethyl-1-(4-trifluoromethyl-phenyl)-1H-imidazol-4-ylethynyl]-pyridine] | 44
Cc1ccc(-n2c(C)nc(C#Cc3ccnc(Cl)c3)c2C)nc1 [compound 15, 2-[4-(2-Chloro-pyridin-4-ylethynyl)-2,5-dimethyl-1H-imidazol-1-yl]-5-methyl-pyridine] | 70
Cc1nc(C#Cc2ccnc(Cl)c2)c(C)n1-c1ccc(Cl)nc1 [compound 16, 2-Chloro-5-[4-(2-Chloro-pyridin-4-ylethynyl)-2,5-dimethyl-1H-imidazol-1-yl]-pyridine] | 86
Cc1cc(C(F)(F)F)cc(-n2c(C)nc(C#Cc3ccnc(Cl)c3)c2C)n1 [compound 17, 2-[4-(2-Chloro-pyridin-4-ylethynyl)-2,5-dimethyl-imidazol-1-yl]-6-methyl-4-trifluoromethyl-pyridine] | 79
Cc1nc(C#Cc2ccnc(Cl)c2)c(C)n1-c1cnccn1 [compound 18, 2-[4-(2-Chloro-pyridin-4-ylethynyl)-2,5-dimethyl-imidazol-1-yl]-pyrazine] | 108
Cc1nc(C#Cc2ccnc(Cl)c2)c(C)n1-c1cccc(C(F)(F)F)c1 [compound 21, 2-Chloro-4-[2,5-dimethyl-1-(3-trifluoromethyl-phenyl)-1H-imidazol-4-ylethynyl]-pyridine] | 55
Cc1nc(C#Cc2ccnc(Cl)c2)c(C)n1-c1ccc(F)c(Cl)c1 [compound 22, 2-Chloro-4-[1-(3-chloro-4-fluoro-phenyl)-2,5-dimethyl-1H-imidazol-4-ylethynyl]-pyridine] | 31
Cc1cccc(-n2c(C)nc(C#Cc3ccnc(Cl)c3)c2C)n1 [compound 23, 2-[4-(2-Chloro-pyridin-4-ylethynyl)-2,5-dimethyl-1H-imidazol-1-yl]-6-methyl-pyridine] | 93
Cc1nc(C#Cc2ccnc(Cl)c2)c(C(F)F)n1-c1ccc(F)cc1 [compound 27, 2-Chloro-4-[5-difluoromethyl-1-(4-fluoro-phenyl)-2-methyl-1H-imidazol-4-ylethynyl]-pyridine] | 42.2
Cc1nc(C#Cc2ccnc(Cl)c2)c(CO)n1-c1ccc(F)cc1 [compound 28, [5-(2-Chloro-pyridin-4-ylethynyl)-3-(4-fluoro-phenyl)-2-methyl-3H-imidazol-4-yl]-methanol] | 211

The next compounds have a lower Ki than those just listed; values first:

Ki [nM] | Structure (SMILES)
28 | Cc1nc(C#Cc2ccnc(Cl)c2)c(C)n1-c1cccc(Cl)c1F [compound 20, 2-Chloro-4-[1-(3-chloro-2-fluoro-phenyl)-2,5-dimethyl-1H-imidazol-4-ylethynyl]-pyridine]
26 | Cc1nc(C#Cc2ccnc(Cl)c2)c(C)n1-c1cccc(C(F)(F)F)n1 [compound 24, 2-[4-(2-Chloro-pyridin-4-ylethynyl)-2,5-dimethyl-1H-imidazol-1-yl]-6-(trifluoromethyl)-pyridine]
21 | Cc1ccc(-n2c(C)nc(C#Cc3ccnc(Cl)c3)c2C)cc1 [compound 7, 2-Chloro-4-(2,5-dimethyl-1-p-tolyl-1H-imidazol-4-ylethynyl)-pyridine]
20 | Cc1nc(C#Cc2ccnc(Cl)c2)c(C)n1-c1ccc(Cl)cc1 [compound 19, 2-Chloro-4-[1-(4-chloro-phenyl)-2,5-dimethyl-1H-imidazol-4-ylethynyl]-pyridine]
14 | Cc1nc(C#Cc2ccnc(Cl)c2)c(C)n1-c1cccc(OC(F)(F)F)c1 [compound 12, 2-Chloro-4-[2,5-dimethyl-1-(3-trifluoromethoxy-phenyl)-1H-imidazol-4-ylethynyl]-pyridine]
10 | Cc1ccc(-n2c(C)nc(C#Cc3ccnc(Cl)c3)c2C)cc1Cl [compound 8, 2-Chloro-4-[1-(3-chloro-4-methyl-phenyl)-2,5-dimethyl-1H-imidazol-4-ylethynyl]-pyridine]
5.9 | Cc1c(C#Cc2ccnc(Cl)c2)nn(C)c1-c1ccc(F)cc1 [compound 26, 2-Chloro-4-[5-(4-fluoro-phenyl)-1,4-dimethyl-1H-pyrazol-3-ylethynyl]-pyridine]
5 | Cc1cc(-n2c(C)nc(C#Cc3ccnc(Cl)c3)c2C)ccc1OC(F)(F)F [compound 14, 2-Chloro-4-[2,5-dimethyl-1-(3-methyl-4-trifluoromethoxy-phenyl)-1H-imidazol-4-ylethynyl]-pyridine]
